# Active and inactive are the calls of the source.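 How the source made its calls: active means AC50 no more than tenfold above the top dose tested, or full inhibition at every dose with a flat fit (cut at about 19 µM in these data); inconclusive means flat curve fit with inhibition between 30% and 70%, or poor fit; inactive means AC50 more than tenfold above the top dose tested.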
# Test system: HMLE_sh_eGFP viability, CellTiter-Glo luminescence, 72 h
# Experiment: cytotoxicity in HMLE control line with eGFP shRNA, dose response, counter-screen for HMLE_sh_ECad selective toxicity project, cell-based, HMLE_sh_eGFP, luminescence (AID 463074);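 further: counterscreen control line to flag general toxicity for the HMLE_sh_ECad screen; potency for loss of viability as luminescence drops below DMSO wells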
row,Compound,AC50
1,O=[N+]([O-])c1ccc(COc2ccc(-c3[nH]ncc3-c3ccccc3)c(O)c2)cc1,8.38 µM
2,O=[N+]([O-])c1ccc(/C=N/n2cnc3ccccc32)s1,6.83 µM
3,Cc1ccc(-c2cc(C(=O)NCc3ccc4c(c3)OCO4)no2)cc1,> 19.5 µM (inactive)
4,Cc1cccc(NC(=O)c2nc[nH]c2C(=O)N[C@@H](C)c2ccccc2)c1,12 µM
5,O=C(Cc1ccc(Cl)c(Cl)c1)Nc1ccc(SC(F)F)cc1,3.93 µM
6,CC(C)(C)C1CCC(CN2C(Nc3ccccc3)=NC[C@@H]2Cc2ccccc2)CC1 (some centres not stated),6.54 µM
7,CC(=O)Nc1ccc(-c2csc(NC(=O)CCCc3cccs3)n2)cc1,0.986 µM
8,CCN1CCN(c2cc(C(C)(C)C)nc3c(-c4ccccc4)c(C)nn23)CC1,6.81 µM
9,COc1cc(OC)c(C=O)c(OC(=O)N2CCOCC2)c1,> 19.5 µM (inactive)
10,CC1(C)C=Cc2c(ccc3c2OC[C@H](c2ccc(O)cc2O)C3)O1,4.43 µM
11,Nc1nc(Cl)nc2c1ncn2[C@H]1C[C@H](O)[C@@H](CO)O1,0.318 µM
12,CC[C@@H]1CC=C[C@H]2[C@H]1C(=O)N(Cc1ccccc1)[C@H]2c1ccoc1,7.03 µM
13,Cc1cc(Nc2ccccc2)nc(-c2ccccc2O)n1,7.92 µM
14,CCCC(=O)NC(c1ccco1)c1cc([N+](=O)[O-])c2cccnc2c1O (configuration not stated),7.35 µM
15,CC(=O)N(C)c1ccc(OCC(O)Cn2c3ccc(Cl)cc3c3cc(Cl)ccc32)cc1 (configuration not stated),1.65 µM
16,CCC1=NN(C(=O)c2ccc(Cl)cc2)C(O)(c2ccc(C)cc2)C1 (configuration not stated),7.99 µM
17,CC(C)(C)OC(=O)N1CCC(NC(=O)c2[nH]cnc2C(=O)Nc2ccc(Cl)cc2)CC1,5.94 µM
18,CCCCN(C)c1nc(-c2ccco2)c2c(c1C#N)CC(C)(C)OC2,11.7 µM
19,COc1c(OC(C)=O)ccc(/C=C/c2ccc3cccc(OCc4ccccc4)c3n2)c1[N+](=O)[O-],3.37 µM
20,CCc1cc2cc(C)cc(C)c2nc1SCC(=O)N1CCN(C(=O)c2ccco2)CC1,13.4 µM
21,CCNC(=S)N1N=C2c3ccccc3CCC2C1c1ccc(F)cc1 (configuration not stated),2.91 µM
22,N=c1c2c(ncn1Cc1ccco1)Oc1c(ccc3ccccc13)C2c1ccccc1 (configuration not stated),3.92 µM
23,CCOC(=O)c1c(C)oc2c1C(=O)c1ccccc1C2=O,4.72 µM
24,O=C(N/N=C/c1cc(Cl)ccc1O)c1ccc(Br)cc1,4.41 µM
25,COc1cccc(NP(=O)(Oc2ccccc2)Oc2ccccc2)c1,15.1 µM
26,CNC(=O)c1c(NC(=O)c2ccc(S(=O)(=O)N3CCCc4ccccc43)cc2)sc2c1CCN(C)C2,0.987 µM

row,Compound,AC50
1,Cc1ccc(OCCN2CCN(c3nc(NCc4ccco4)c4ccccc4n3)CC2)cc1,4.66 µM
2,NC(=O)CC(NC(=O)c1ccc(Br)cc1)c1ccc(NCc2ccc(F)cc2)c([N+](=O)[O-])c1 (configuration not stated),4.61 µM
3,C[C@]12CC[C@H]3C(CCC4(O)CC(O)CC[C@]34C=O)C1=CC[C@H]2c1ccc(=O)oc1 (some centres not stated),3.6 µM
4,Nc1ccccc1N=Cc1c(O)n(CCC2=CCCCC2)c(=O)[nH]c1=O,> 19.5 µM (inactive)
5,NC(=O)CC(NC(=O)c1ccc(Br)cc1)c1ccc(N2CCCCCCC2)c([N+](=O)[O-])c1 (configuration not stated),7.85 µM
6,O=[N+]([O-])c1ccc(COc2ccc(-c3[nH]ncc3-c3ccc(Cl)cc3)c(O)c2)cc1,4.01 µM
7,O=C(N/N=C/c1ccc2c(c1)OCO2)c1ccc(COCC(F)(F)C(F)F)cc1,1.64 µM
8,CCOC(=O)N1CCN(CCC(=O)c2ccc(Cl)cc2)CC1,14 µM
9,CCOC(=O)/C=C/C(=O)Nc1cccc([N+](=O)[O-])c1,8.97 µM
10,CC(C)(C)c1ccc(C(=O)Nc2ccc(N3CCOCC3)cc2)cc1,17.3 µM
11,O=C(Nc1ccc(Cl)cc1)c1nc[nH]c1C(=O)NCCN(CCNC(=O)c1[nH]cnc1C(=O)Nc1ccc(Cl)cc1)CCNC(=O)c1[nH]cnc1C(=O)Nc1ccc(Cl)cc1,4.36 µM
12,O=C(CNC(=S)N(Cc1ccccc1)Cc1ccccc1F)NCCc1ccc(Cl)cc1,6.98 µM
13,Cc1ccc(C(C)C)c(OCc2nn(CC(=O)c3ccc(OC(F)F)cc3)c3[n+]2CCCCC3)c1,4.17 µM
14,O=[N+]([O-])c1nn(-c2ccc3c(c2)OCCO3)n(O)c1=NCCC1=CCCCC1,17.9 µM
15,CC1CCCN(c2ccc(C(=O)N3CCC4(CC3)OCCO4)cc2[N+](=O)[O-])C1 (configuration not stated),7.96 µM
16,Cc1cc(C(C)(C)C)ccc1OCCCCN1CCCC1,4.22 µM
17,Cc1nn2c(COc3ccc(NC(=O)c4ccccc4Cl)cc3)nnc2c2ccccc12,3.08 µM
18,Cc1ccc(COc2ccc(Br)cc2/C=N/O)cc1,5.23 µM
19,CCOC(=O)c1sc(NC(=O)Nc2ccccc2Cl)cc1C,7.58 µM
20,O=C(NNc1ccccc1)C(=O)N1CCCCC1,3.16 µM
21,CC(C)(C)c1cc(C(=O)NNc2cccc(Cl)c2)n(Cc2ccccc2)n1,2.07 µM
22,CC(=O)OCCCNc1cc(Sc2ccc(Cl)cc2)c2nonc2c1[N+](=O)[O-],4.28 µM
23,CCOC(=O)CSC1=C(C#N)C(c2sccc2C)CC(=O)N1 (configuration not stated),> 19.5 µM (inactive)
24,Clc1ccc(C(Cn2ccnc2)OCc2csc3c(Cl)cccc23)c(Cl)c1 (configuration not stated),3.16 µM
25,N#Cc1c(NC(=O)c2ccc(Cn3cc(Br)cn3)o2)sc2c1CCCCC2,13.4 µM
26,CCCCNc1c(-c2cccc(-c3cc(C(C)=O)cs3)c2)nc2ccc(C)cn12,3.48 µM

row,Compound,AC50
1,CCOC(=O)c1ccc(NC(=O)c2nc[nH]c2C(=O)NCCCCNC(=O)c2[nH]cnc2C(=O)Nc2ccc(C(=O)OCC)cc2)cc1,3.99 µM
2,Cc1ccc(Cl)cc1N1CCN(C(CC(C)C)c2nnnn2CC2CCCO2)CC1 (configuration not stated),0.808 µM
3,Cc1cc(C)nc(NC(=O)/C=C/c2cccs2)c1,> 19.5 µM (inactive)
4,CCSc1nnc(NC(=O)NC(CC)(C(F)(F)F)C(F)(F)F)s1,12 µM
5,C=Cn1ccnc1P(=S)(c1ccc2c(c1)c1ccccc1n2CC)c1nccn1C=C,2.18 µM
6,CCC(=O)NC(=S)Nc1cccc(Cl)c1N1CCCCC1,9.96 µM
7,CC(C)CC(=O)c1c(O)c(C=O)c(O)c2c1O[C@@]1(C)[C@@H](C2)C[C@H]2C[C@@H]1C2(C)C,6.32 µM
8,COc1cc(CNc2ccc(CNc3ncn[nH]3)cc2)ccc1OCc1ccccc1,0.708 µM
9,C#CCOCCOCCOCCNc1nc(N2CCN(C(=O)CCCCCCCCCCNC(=O)Cn3cc(C[C@@H](C)O)nn3)CC2)nc(N2CCN(C(=O)CCCCCCCCCCNC(=O)[C@H](CCCCN)n3cc(C[C@@H](C)CC)nn3)CC2)n1,6.8 µM
10,O=C(CN(c1ccc(Cl)cc1)S(=O)(=O)c1ccc(Cl)c([N+](=O)[O-])c1)NCCc1ccc(F)cc1,3.81 µM
11,Brc1ccc(/C=N/Nc2ccccc2)cc1,8.16 µM
12,CCN(Cc1ccccc1)S(=O)(=O)c1ccc(C(=O)N(CCCN(C)C)c2nc3cc(C)cc(C)c3s2)cc1,3.75 µM
13,O/N=C/c1ccnc(SCc2ccc(Cl)cc2)n1,10.9 µM
14,CCCCNC(=O)c1ccc(Cn2c(=S)[nH]c3c([nH]c4ccc(OC)cc43)c2=O)cc1,1.38 µM
15,O=C(Nc1cc(N2CCOCC2)ncn1)NC1(C(F)(F)F)Oc2ccc(Cl)cc2O1 (configuration not stated),14.7 µM
16,O=C(Nc1cc(S(=O)(=O)Nc2ccc(Cl)cc2)ccc1N1CCCCC1)c1ccc(F)cc1,8.97 µM
17,COc1ccc(NC(=O)c2ccc(COc3ccccc3Br)o2)c(OC)c1,3.67 µM
18,Oc1c(Cl)cc(Cl)cc1CNc1ccc(Br)cn1,3.68 µM
19,CCOC(=O)c1c(NC(NC(=O)C(C)C)C(Cl)(Cl)Cl)sc2c1CCC2 (configuration not stated),7.47 µM
20,Cc1nn(Cc2ccc(Cl)cc2)c(C)c1NC(=O)c1cc(-c2ccc3c(c2)OCO3)on1,1.17 µM
21,COc1ccc(Cn2nnnc2C(C(C)C)N(Cc2ccco2)Cc2cccs2)cc1 (configuration not stated),> 19.5 µM (inactive)
22,COCCNC(=O)CN(C(=O)CCC(=O)Nc1ccccn1)c1ccc(C)cc1,> 19.5 µM (inactive)
23,Cc1oc2c(c1C(=O)N1CCC(C)CC1)C(=O)c1ccccc1C2=O,7.99 µM
24,CC1CCCCN1c1cc(C#N)c(C#N)cc1[N+](=O)[O-] (configuration not stated),1.77 µM
25,Cc1ccc(C)c(-c2csc(N)c2C(=O)OC(C)C)c1,8.52 µM
26,Cc1cccc(NC(=O)c2nc[nH]c2C(=O)NC2CCN(C(=O)OC(C)(C)C)CC2)c1,6.79 µM

row,Compound,AC50
1,CC(C)(C)C1CCC2(CC1)C(C#N)=C(SCC(=O)NC1CCCCC1)NC(=O)C2C#N (configuration not stated),9.88 µM
2,Cc1cc(C)cc(N2C(=O)NC(=O)/C(=C/c3cccn3-c3ccc(Cl)cc3)C2=O)c1,2.84 µM
3,CCC/C(=C1/c2ccccc2C(=O)N1c1ccccc1)c1ccc2[nH]ccc2c1,1.67 µM
4,CC(C)=CCC/C(C)=C/Cc1c(O)ccc(C(=O)/C=C/c2ccc(O)cc2)c1O,6.42 µM
5,C/C(=N\OCc1nc2ccccc2c(=O)n1/N=C/c1cc([N+](=O)[O-])ccc1O)c1ccccc1,16 µM
6,Cc1cc(=O)[nH]c(N/N=C/c2ccccn2)n1,1.53 µM
7,COc1ccc(/C=C(\C#N)c2c[nH]c3ccccc23)cc1,0.577 µM
8,Cc1ccc(S(=O)(=O)Nc2ccc(-c3nnc(SCc4ccccc4Cl)o3)cc2)cc1,5.7 µM
9,COC(=O)Nc1ccc(S(=O)(=O)N2c3ccccc3CCC2C)cc1 (configuration not stated),1.42 µM
10,COc1ccc(C(=O)CSc2nnc(CN3CCCCC3)n2-c2ccc(Cl)cc2)cc1OC,9.46 µM
11,S=c1[nH]nc(-c2ccccc2)n1/N=C/c1ccc(-c2ccccc2Cl)o1,5.93 µM
12,O=C1C=C(c2ccc(Cl)c(C(F)(F)F)c2)C[C@@H](c2ccc3c(c2)OCO3)C1,6.37 µM
13,CC(=O)Nc1ccc(-c2csc(NC(=O)Cc3cccc(F)c3)n2)cc1,5.64 µM
14,CC(=O)Oc1ccc(C#C/C=C2\c3ccccc3C(=O)N2c2ccccc2)cc1,4.92 µM
15,CC(=O)Nc1ccc(C2CC(c3ccc(Cl)cc3)=NN2c2ccccc2)cc1 (configuration not stated),2.13 µM
16,Cc1cc(C)c2[nH]c(=O)c(CN(Cc3cccs3)C(=S)NCc3ccco3)cc2c1,> 19.5 µM (inactive)
17,CC(=O)c1ccc(N2CCC(c3cc(-c4ccc(Cl)cc4)n[nH]3)CC2)c([N+](=O)[O-])c1,3.62 µM
18,Cc1ccc(C)c(NC(=S)NC(NC(=O)Cc2cccc3ccccc23)C(Cl)(Cl)Cl)c1 (configuration not stated),1.97 µM
19,COc1ccc(O)c(/C=N/Nc2nc(Nc3ccccc3)nc(-n3nc(C)cc3C)n2)c1,3.52 µM
20,Cc1ccccc1C(=O)Nc1ccc(-c2nc3ccc(C(=O)c4ccccc4)cc3[nH]2)cc1,1.8 µM
21,O=c1cc(N2CCCCC2)c(-c2ccccc2)nn1Cc1ccc(Cl)cc1Cl,3.96 µM
22,Nc1[nH]n2c(=O)cc(-c3ccccc3)nc2c1N=Nc1ccccc1,13.3 µM
23,COc1cc2c(cc1NC(=O)CN(C)Cc1cccc(OC)c1OC)oc1ccccc12,3.56 µM
24,Cc1ccc(-c2nc(NCc3ccco3)c3ccccc3n2)cc1,12.4 µM
